Experimental data: PMC6277434, “Discovery of a potent HMG-CoA reductase degrader that eliminates statin-induced reductase accumulation and lowers cholesterol” (Nature Communications, 2018)
Several values for one entry are separate records, joined by “and”; a condition that tells them apart may be missing. Equal entries are not always repeated.

How the values were obtained:
Format in all cases: in vivo
[1] = tested on: Ldlr−/− mice on a western diet; experiment: Atherosclerosis model: Ldlr−/− mice on western diet (Sudan IV aorta lesions, TC/TG, FPLC); conditions: for atherosclerotic lesions (en face Sudan IV staining of aortas), individual mice / atherosclerotic lesions (en face Sudan IV staining of aortas), mean: 60 mg/kg/day (each agent) gavage once daily 20 weeks; for aorta atherosclerotic lesions compared with vehicle / elevations of serum and liver TC and TG / serum cholesterol levels in VLDL, LDL and HDL (FPLC): 20 weeks; for aorta atherosclerotic lesions compared with vehicle: in words; for elevations of serum and liver TC and TG / serum cholesterol levels in VLDL, LDL and HDL (FPLC): Ldlr−/− mice, WD
Excerpt: (§1) Male C57BL/6 mice (8-week-old) were obtained from Shanghai Laboratory Animal Company (SLAC) (Shanghai, China). Male Ldlr^−/− mice (8-week-old) were obtained from Nanjing Biomedical Research Institute of Nanjing University (Nanjing, China). Mice had ad libitum access to water and standard chow diet (SLAC) unless mentioned otherwise. Special diets included medium-fat-medium-cholesterol diet (chow diet with10% fat, 0.2% cholesterol and 0.5% sodium cholate, custom made in SLAC), and western diet (20% fat, 1.25% cholesterol, 0.5% sodium cholate, D12109C, Research Diets). Mice were maintained in a pathogen-free environment and kept on a 12-h light/dark schedule. Mice were gavaged as described in figure legends with saline containing 0.5% methyl cellulose and 0.5% Tween-80. All mice were used in accordance with the guidelines approved by the Institutional Animal Care and Use Committee of Wuhan University.
(§2) Mice were anesthetized and blood collection was performed. Serum was prepared from blood by centrifuging at 1500 × g for 10 min. Livers were harvested and homogenized in a 2:1 mixture of chloroform and methanol using Precellys 24 (Bertin). The organic phase was dried under N2 and liver lipids were reconstituted in ethanol. Total cholesterol and triglyceride levels in the serum and liver were determined using Cholesterol Assay Kit and Triglyceride Assay Kit (Shanghai Kehua Bio-engineering, China).
To examine aorta atherosclerotic lesions, the aortic tree was isolated and fixed with 4% PFA. After removing perivascular adipose tissues, the atherosclerotic lesions were stained with Sudan IV for 10 min and washed with 70% ethanol for 3 min. The aortic tree was pinned to the black wax-filled petri dish containing PBS and imaged under a stereoscopic microscope (Olympus SZX16). The atherosclerotic lesions were quantified with Image J software (NIH)[66].
(§3) Serum lipoproteins were separated by FPLC (AKTA, GE Healthcare) using Superdex 75 10/300 GL (GE Healthcare) column. One hundred microliters pooled serum from five mice per group was diluted with 200 μl PBS, and loaded to the column. Fractions were eluted with PBS at a constant rate of 0.2 ml min^–1, and collected with 300 μl per tube. 100 μl fractions were used to quantify the concentration of total cholesterol level with the Amplex Red Cholesterol Assay Kit (Invitrogen). The cholesterol distribution curves of lipoproteins were done with GraphPad Prism 6 software.

[2] = target: T1, HMGCR (Mus musculus, UniProt Q01237); experiment: Immunoblotting of hepatic HMGCR protein (liver membrane fractions) of gavaged mice
T1 construct: from tissue; host or cells: mouse liver (membrane fraction)
T1 sequence (Q01237 1-887): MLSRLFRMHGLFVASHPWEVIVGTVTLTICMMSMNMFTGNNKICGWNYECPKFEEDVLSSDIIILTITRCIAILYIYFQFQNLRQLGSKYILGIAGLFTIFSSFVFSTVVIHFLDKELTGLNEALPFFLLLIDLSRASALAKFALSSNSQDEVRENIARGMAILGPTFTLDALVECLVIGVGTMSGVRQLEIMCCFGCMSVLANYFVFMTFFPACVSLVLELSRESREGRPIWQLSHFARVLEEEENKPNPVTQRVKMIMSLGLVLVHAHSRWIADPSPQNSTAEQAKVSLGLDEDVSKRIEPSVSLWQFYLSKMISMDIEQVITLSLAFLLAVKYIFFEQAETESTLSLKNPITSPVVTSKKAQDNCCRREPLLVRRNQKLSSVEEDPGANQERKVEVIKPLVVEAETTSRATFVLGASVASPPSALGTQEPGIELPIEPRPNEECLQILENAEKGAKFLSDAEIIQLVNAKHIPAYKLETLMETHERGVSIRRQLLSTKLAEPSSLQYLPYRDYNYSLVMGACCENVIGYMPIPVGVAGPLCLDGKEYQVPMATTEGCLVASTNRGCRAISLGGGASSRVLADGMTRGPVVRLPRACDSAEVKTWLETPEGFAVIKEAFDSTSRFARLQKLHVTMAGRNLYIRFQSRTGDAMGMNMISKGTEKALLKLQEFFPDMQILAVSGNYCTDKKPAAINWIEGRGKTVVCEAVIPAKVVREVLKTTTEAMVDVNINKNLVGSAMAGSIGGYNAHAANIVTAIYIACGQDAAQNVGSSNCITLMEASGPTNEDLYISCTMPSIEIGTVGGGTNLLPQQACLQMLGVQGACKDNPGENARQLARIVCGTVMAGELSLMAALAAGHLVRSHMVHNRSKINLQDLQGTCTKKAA

[3] = tested on: C57BL/6J mice fed MFMC diet; experiment: Diet-induced hyperlipidemia: serum and liver TC/TG and FPLC lipoprotein profile in mice on MFMC diet; conditions: for TC levels in liver, mean / TC levels in the serum, mean / TG levels in liver, mean / TG levels in the serum, mean / TC levels in liver, individual mice / TC levels in the serum, individual mice / TG levels in liver, individual mice / TG levels in the serum, individual mice: 60 mg/kg/day (each agent) gavage once daily 6 weeks; for TC levels in liver, individual mice / TC levels in the serum, individual mice / TG levels in liver, individual mice / TG levels in the serum, individual mice: 60 mg/kg/day; for total cholesterol (TC) and triglyceride (TG) levels in both serum and liver / cholesterol contents in VLDL, LDL and HDL (FPLC serum lipoprotein profile): 6 weeks; for total cholesterol (TC) and triglyceride (TG) levels in both serum and liver: in words; for cholesterol contents in VLDL, LDL and HDL (FPLC serum lipoprotein profile): pooled serum
Excerpt: as §1, §2, §3

Row | SMILES | atherosclerotic lesions (en face Sudan IV staining of aortas), individual mice [1] | atherosclerotic lesions (en face Sudan IV staining of aortas), mean [1] | aorta atherosclerotic lesions compared with vehicle [1] | elevations of serum and liver TC and TG [1] | serum cholesterol levels in VLDL, LDL and HDL (FPLC) [1] | TC levels in liver, mean [3] | TC levels in the serum, mean [3] | TG levels in liver, mean [3] | TG levels in the serum, mean [3] | TC levels in liver, individual mice [3] | TC levels in the serum, individual mice [3] | TG levels in liver, individual mice [3] | TG levels in the serum, individual mice [3] | total cholesterol (TC) and triglyceride (TG) levels in both serum and liver [3] | cholesterol contents in VLDL, LDL and HDL (FPLC serum lipoprotein profile) [3] | also measured
1 | C=CCC(O)(CC=C)CCCC(C)C1CCC2C3C(O)C=C4C(C)(C)C(O)CCC4(C)C3CCC12C (stereo not drawn) [Cmpd 81] | 32.5011 and 38.2916 and 37.5217 and 25.3733 and 31 | 32.9375 | Significantly less aorta lesions | significant effects on alleviating the elevations | remarkably reduced | 3.712 | 104.81 | 12.3264 | 55.4414 | 3.732 and 3.964 and 3.655 and 3.864 and 3.346 | 111 and 100.379 and 112.009 and 105.661 and 95 | 12.9147 and 9.311 and 13.437 and 16.1354 and 9.834 | 60.1534 and 51.6317 and 49.6138 and 57.1457 and 58.6623 | significantly lowered | reduced to similar levels | liver HMGCR protein fold change, mean ([2]; C57BL/6J mice, chow diet, single agent 60 mg/kg/day gavage 10 days, vehicle = 1): 0.5524; decrease of liver HMGCR amount ([2]; Cmpd 81 alone, 60 mg/kg/day, 10 days): 50%; decrease of liver HMGCR relative to lovastatin-treated samples ([2]; co-administration of Cmpd 81 with lovastatin, each 60 mg/kg/day, 10 days): > 13 fold; liver HMGCR protein fold change, mean ([2]; mouse, in vivo): ~ 2
2 | CC[C@H](C)C(=O)O[C@H]1C[C@@H](C)C=C2C=C[C@H](C)[C@H](CC[C@@H]3C[C@@H](O)CC(=O)O3)[C@H]21 [Lovastatin, lovastatin] | 31.5731 and 31.0783 and 37.0572 and 32.3991 and 25 | 31.4215 | Significantly less aorta lesions | significant effects on alleviating the elevations | remarkably reduced | 3.624 | 103.826 | 12.4726 | 54.3007 | 3.3 and 3.747 and 3.618 and 3.824 and 3.629 | 108.623 and 105.887 and 100.644 and 93.2834 and 110.692 | 14.0603 and 12.8492 and 8.103 and 12.4763 and 14.8742 | 51.0844 and 48 and 54.6444 and 61.1304 and 56.6444 | significantly lowered | reduced to similar levels | hepatic HMGCR protein level, mean ([2]; C57BL/6J mice, 60 mg/kg/day gavage once daily 7 days, vehicle = 1, 60 mg/kg/day): 58.4 ± 3.5 fold and 58.3968 fold; hepatic HMGCR protein level, mean ([2]; C57BL/6J mice, 60 mg/kg/day gavage once daily 7 days, vehicle = 1, listed as lovastatin, 60 mg/kg/day): 58 fold; hepatic HMGCR protein level, individual mice ([2]; C57BL/6J mice, 60 mg/kg/day gavage once daily 7 days, vehicle mean = 1, 60 mg/kg/day): 61.3526 and 59.2668 and 54.571; liver HMGCR protein fold change, mean ([2]; C57BL/6J mice, chow diet, single agent 60 mg/kg/day gavage 10 days, vehicle = 1, listed as Lova): 32.3047; liver HMGCR protein fold change, mean ([2]; C57BL/6J mice, chow diet, single agent 60 mg/kg/day gavage 10 days, vehicle = 1, listed as lovastatin): more than 30
